Assay results from patent US11413296B2, “Viscous budesonide for the treatment of inflammatory diseases of the gastrointestinal tract” (The Regents of the University of California, priority 2005, dated 2022).
Read-outs that look alike come from different tables or passages of the source.

Test system: children with EE
Assay type: in vivo, human
Excerpt: Patient 1 was a person with a history of abdominal pain, failure to thrive, and vomiting since infancy, and developmental delay with isolated EE diagnosed in 2001. Their allergic history was significant for allergic rhinitis secondary to cat, dog, and dust mite exposure as well as positive Pharmacia CAP radioallergosorbent testing for fish and milk. […] They were referred to Children's Hospital Eosinophilic Gastrointestinal Disorders clinic for further management of EE recalcitrant to usual therapy. At the time of their referral, they continued to have vomiting and poor weight gain and their parent reported significant difficulty with the puff and swallow technique. They were placed on a regimen of twice daily oral budesonide suspension (Pulmicort®) 500 micrograms (4 ml) mixed with about 10 packets (1 gram each) sucralose (Splenda®), a non-absorbed sugar in order to increase fluid viscosity to be swallowed twice daily. The total volume of the preparation was about 7 to 8 ml. […] Eight am cortisol was 13.2 mcg/dL (normal range for age 3-15 mcg/dL) after four months of therapy.
Patient 2 was a child with a history of developmental delay, abdominal pain, and RAST positivity for milk, egg, and wheat. […] They were placed on a hydrolyzed formula containing milk protein (Peptamen Jr®), omeprazole 10 mg twice daily and oral cromolyn (Gastrocrom®) 100 mg four times daily. […] They were referred to the Children's Hospital Eosinophilic Gastrointestinal Disorders clinic for further management. […] After two months of elemental formula and oral cromolyn sodium, EGD was unchanged with a pale, furrowed esophagus and maximal eosinophil counts of 100, 90, and 70 per hpf in the distal, mid, and proximal esophagus with diffuse basal zone hyperplasia. Their developmental delay precluded the use of a fluticasone inhaler devise with puff and swallow technique. As an alternative, they received oral budesonide 500 micrograms (Pulmicort®) mixed with sucralose (Splenda®) twice daily as topical esophageal therapy.

[1] = Patient 2, elemental formula and oral cromolyn sodium, two months
[2] = Patient 2, hydrolyzed formula, omeprazole and oral cromolyn 100 mg four times daily, 12 months

`O=C(O)c1cc(=O)c2c(OCC(O)COc3cccc4oc(C(=O)O)cc(=O)c34)cccc2o1` [cromolyn] was tested, and the “maximum eosinophil count, distal esophagus” value (Patient 2 (40 per hpf before), hydrolyzed formula (Peptamen Jr), omeprazole 10 mg twice daily and oral cromolyn 100 mg four times daily, 12 months) was 94 per hpf, the “maximal eosinophil count, distal esophagus” value [1] was 100 per hpf and the “maximal eosinophil count, mid esophagus” value [1] was 90 per hpf. For the same compound, the “maximal eosinophil count, proximal esophagus” value [1] was 70 per hpf, the “maximum eosinophil count, mid esophagus” value [2] was 65 per hpf and the “maximum eosinophil count, proximal esophagus” value [2] was 90 per hpf.

`CCC(=O)O[C@]1(C(=O)SCF)[C@H](C)C[C@H]2[C@@H]3C[C@H](F)C4=CC(=O)C=C[C@]4(C)[C@@]3(F)[C@@H](O)C[C@@]21C` [fluticasone] showed a maximal eosinophil count (Patient 1, elemental formula and fluticasone, accompanied by basal zone hyperplasia) of 74 per hpf and a maximum eosinophil count (Patient 1, omeprazole 10 mg twice daily and fluticasone 220 ug twice daily, after 6 months) of 50 per hpf.

`C[C@]12C=CC(=O)C=C1CC[C@@H]1[C@@H]2C(=O)C[C@@]2(C)[C@H]1CC[C@]2(O)C(=O)CO` [prednisone] was tested, and the “maximum eosinophils per hpf on repeat EGD with biopsy” value (Patient 1 (EE, 60 per hpf at diagnosis), oral prednisone 0.5 mg per kg daily for one month) was 2 per hpf.

In the case of `CCCC1O[C@@H]2C[C@H]3[C@@H]4CCC5=CC(=O)C=C[C@]5(C)[C@H]4[C@@H](O)C[C@]3(C)[C@]2(C(=O)CO)O1` (stereo partly drawn) [budesonide, 16,17-(butylidenebis(oxy))-11,21-dihydroxy-, (11-β,16-α)-pregna-1,4-diene-3,20-dione], the “maximum eosinophil count, proximal esophagus” value (Patient 2 (70 before), oral budesonide 500 micrograms mixed with sucralose twice daily, 3 months) is reported as 5 per hpf, the “maximum eosinophil count, mid esophagus” value (Patient 2 (90 before), oral budesonide 500 micrograms mixed with sucralose twice daily, 3 months) is reported as 20 per hpf and the “maximum eosinophil count, distal esophagus” value (Patient 2 (100 before), oral budesonide 500 micrograms (Pulmicort) mixed with sucralose twice daily, 3 months) is reported as 28 per hpf.
